Results from patent US8394629B2, “Use of vinca alkaloids and salts thereof” (Keio University, priority 2003, dated 2013).

Legend:
[1] = test system: pancreatic acinar carcinoma AR42J-B13 cells; assay: Insulin immunofluorescence of AR42J-B13 cells; format: cell-based, rat; conditions: after 72 hours; conophylline 0.1 μg/ml, HGF 100 pM, activin A 2 nM
Protocol: (§1) DMEM was sterilized by filtration after its pH was adjusted to 7.4 in the presence of 20 mM HEPES-NaOH. AR42J-B13 cells (endowed by Dr. Itaru Kojima, Institute for Cellular and Molecular Regulation, Gunma University) a highly sensitive subclone of AR42J, were cultured at 37° C. in a 5% CO2 incubator with 20 ml of culture medium DMEM supplemented with 100 mg/l kanamycin, 0.6 g/l glutamine, 100 unit/ml penicillin G, 5 mM NaHCO3, and 10% FBS. To prevent transformation due to a high density of the cells and to retain differentiation ability of the cells, the cells were transferred every 2 to 3 days to maintain 2.5% to 5% of confluency. The cell transfer was performed as follows: After the medium was removed, the cells were washed twice in PBS^− (Ca^2+, Mg^2+-free PBS; 8 g/l, NaCl, 0.2 g/l KCl, 0.916 g/Na2HPO4, 0.2 g/l KH2PO4). Subsequently, the cells were detached using 2 ml of trypsin-EDTA solution, and then trypsin was inactivated by addition of 8 ml of the medium. Subsequently, the cell were sedimented by centrifugation at 1000 rpm for 5 min, trypsin was removed, 10 ml of fresh medium was added, and transferred to be 2.5% to 5% of confluency. Cells were cryopreserved under the condition of 7.5% dimethyl sulfoxide (DMSO). […]

[2] = test system: neonatal porcine pancreatic cells; assay: Immunostaining of insulin-producing cells in cultured neonatal porcine pancreatic cells (Experiment example I); format: cell-based, pig; conditions: three weeks culture; nicotinamide 10 mM, HGF 10 ng/ml, conophylline 0.1 μg/ml; FIG. 2
Protocol: Neonatal pigs within 72 hours of birth were obtained from the (Takayama) pig farm. The whole pancreas (ventral and dorsal pancreas) was removed under general anesthesia immediately after animals were brought to the operating room. After elimination of connective tissue covering the removed pancreas and blood adhering to it, the pancreas was transferred to a 10 ml beaker and dissected into small pieces with ophthalmic scissors. The dissected pieces were transferred to a 100 ml conical flask, to which 50 to 60 ml of phosphate buffered saline (PBS) was added. After a 3 min rotation at 110 rpm on a low speed stirrer, the mixture was allowed to stand still and the supernatant was discarded. Then, 40 mL of phosphate buffered saline containing Liberase PI (Roche) at a concentration of 2.5 mg/ml was added. After an 8 min rotation at 110 rpm on a low speed stirrer, the mixture was allowed to stand still and the supernatant containing the cells was collected. The operation was repeated 5 times. The supernatant collected was centrifuged at 1200 rpm for 5 min. to collect cells. The cells collected in the centrifugal sedimentum was suspended in 25 to 50 ml of PBS, 25 ml of cell suspension was overlaid gently on 10 ml of Histopaque 1077 (Sigma), followed by centrifugation at 1800 rpm for 10 min. […]

[3] = test system: pancreatic acinar carcinoma AR42J-B13 cells; assay: Morphological change and trypan blue exclusion test of AR42J-B13 cells; format: cell-based, rat
Protocol: as §1, with “medium.” for “medium. Subsequently, the cell were sedimented by centrifugation at 1000 rpm for 5 min, trypsin was removed, 10 ml of fresh medium was added, and transferred to be 2.5% to 5% of confluency. Cells were cryopreserved under the condition of 7.5% dimethyl sulfoxide (DMSO).”
Cells that had been prepared at a density of 4×10^5 cells/ml were plated at 500 μl per well on 24-well plates, followed by incubation at 37° C. in a 5% CO2 incubator. […] Further, the photograph was enlarged 2.5 times and a morphological change was defined as having occurred when the full length of a cell in the diameter became 1.5 times; thus, the rates of morphological changes were determined.

[4] = test system: pancreatic acinar carcinoma AR42J-B13 cells; assay: ELISA quantification of insulin secretion of differentiated AR42J-B13 cells; format: cell-based, rat; conditions: secretion below the detection level
[5] = test system: streptozotocin-administered rats; assay: Blood glucose levels of streptozotocin-administered rats; format: in vivo, Wistar rats; conditions: 5 μg/g BW subcutaneously for seven consecutive days from day 1 after streptozotocin; versus control; P<0.05 / P<0.01; FIG. 4
Protocol: Ten 1-day old Wistar rats (purchased from Japan SLC, Shizuoka, Japan) were intraperitoneally injected with streptozotocin (purchased from Wako Pure Chemical Industries, Ltd., dissolved in […] citrate buffer (pH 4.5)) at 85 μg/g BW per rat. Streptozotocin decreases insulin production by destroying pancreatic β cells, thereby inducing diabetes. The day of streptozotocin injection was defined as day 0, Starting from the next day (day 1), five rats were injected subcutaneously with a solution (ethanol) of conophylline at 5 μg/g BW for seven consecutive days and their random blood glucose levels were measured daily. Five rats in the control group received the same volume of solvent (Control).

[6] = test system: pancreatic acinar carcinoma AR42 J-B13 cells; conditions: known from prior report; cited from earlier work
porcine pancreatic cells = assay: Induction of insulin production in porcine pancreatic cells (statement in the description); format: cell-based, pig; conditions: no conditions given

HGF: Hepatocyte growth factor (HGF), Sigma
red coloration of insulin in cells (immunofluorescence) [1]: no red coloration indicating insulin was observed

CC[C@@]12CC(C(=O)OC)=C3Nc4cc5c(cc4[C@@]34CCN(C[C@H]3O[C@H]31)[C@@H]24)[C@@H]1[C@H](O5)[C@@H](O)[C@@]2(CC)CC(C(=O)OC)=C3Nc4c(cc(O)c(OC)c4OC)[C@@]34CCN1[C@@H]24 [conophylline]
insulin-producing cells colored in red (immunostaining) [2]: only a few insulin-producing cells | process outgrowth (morphological change) ([3]; conophylline 0.1 to 0.3 μg/ml, alone or with HGF): concentration-dependently induced | insulin secretion out of cells [4]: incapable of inducing insulin secretion out of cells | blood glucose levels [5]: apparent decrease in blood glucose levels | insulin production of AR42J cells [6]: induces insulin production | insulin release into culture medium [6]: did not release insulin into culture medium

NC(=O)c1cccnc1 [nicotinamide, reference compound]
insulin-producing cells colored in red (immunostaining) [2]: only a few insulin-producing cells

CC[C@@]12C=CCN3CC[C@]4(C(=C(C(=O)OC)C1)Nc1cc5c(cc14)[C@H]1[C@@H](O5)[C@H](O)[C@]4(CC)CC(C(=O)OC)=C5Nc6c(cc(O)c(OC)c6OC)[C@@]56CCN1[C@H]46)[C@H]32 (stereo in doubt) [conophyllidine]
morphological changes involved in insulin production ([3]; AR42J cells, no concentration given): confirmed to induce morphological changes

B1: Activin: activin A, which belongs to the TGF-β superfamily (protein, UniProt P08476 311-426, looked up)
Inhibin beta A chain: GLECDGKVNICCKKQFFVSFKDIGWNDWIIAPSGYHANYCEGECPSHIAGTSGSSLSFHSTVINHYRMRGHSPFANLKSCCVPTKLRPMSMLYYDDGQNIIKKDIQNMIVEECGCS
inducing insulin production of porcine pancreatic cells (porcine pancreatic cells): does not exhibit the effect | insulin production of AR42J cells [6]: capable of inducing AR42J cells to produce insulin
